Laboratory results: patent US4606911A, “Pharmaceutical composition for the prevention of dental caries” (Rohto Pharmaceutical Co. Ltd., priority 1984, dated 1986)
Converted amounts (≈) assume the structure as drawn. “Also recorded” adds a separate entry of the source. Where two headings read alike, the source gives them in different places.

Assays:
Format in all cases: cell-based
[1] = tested on: Streptococcus mutans OMZ 176; assay: Antibacterial activity (MIC, growth in BHI medium); set-up: key to Antibacterial activity (growth): -: grow; ±: slightly grow; +: not grow
Procedure: (§1) To a test tube was charged 3.8 ml of Brain Heart Infusion (BHI) medium, and 100 μl of a sample solution containing oleanolic, ursolic or glycyrrhetic acid and 100 μl of pre-incubated culture of bacterium selected from those listed below were added thereto. The mixture was incubated at 37° C. and then allowed to stand over night. The extent of the growth of bacterium was observed after two or five days.
Streptococcus mutans OMZ 176

[2] = tested on: Streptococcus salivarius ATCC 9222; assay: Antibacterial activity (MIC, growth in BHI medium); set-up: key to Antibacterial activity (growth): -: grow; ±: slightly grow; +: not grow
Procedure: as §1, with “days. The MIC value was determined for each sample and summarized in Table 2. |Streptococcus salivarius ATCC 9222” for “days.”

[3] = tested on: Bacillus megaterium QM B1551; assay: Antibacterial activity (MIC, growth in BHI medium); set-up: key to Antibacterial activity (growth): -: grow; ±: slightly grow; +: not grow
Procedure: as §1, with “days. The MIC value was determined for each sample and summarized in Table 2. |Bacillus megaterium QM B1551” for “days.”

[4] = tested on: Staphylococcus aureus 209P; assay: Antibacterial activity (MIC, growth in BHI medium); set-up: key to Antibacterial activity (growth): -: grow; ±: slightly grow; +: not grow
Procedure: as §1, with “days. The MIC value was determined for each sample and summarized in Table 2. |Staphylococcus aureus […]” for “days.”

[5] = tested on: Esherichia coli K12; assay: Antibacterial activity (MIC, growth in BHI medium); set-up: key to Antibacterial activity (growth): -: grow; ±: slightly grow; +: not grow
Procedure: as §1
Esherichia coli K12 (Gram negative)

[6] = tested on: Serratia marcescens IFO 12648; assay: Antibacterial activity (MIC, growth in BHI medium); set-up: key to Antibacterial activity (growth): -: grow; ±: slightly grow; +: not grow
Procedure: as §1, with “days. The MIC value was determined for each sample and summarized in Table 2. |Serratia marcescens IFO 12648” for “days.”

[7] = tested on: Pseudomonas aeruginosa KM338; assay: Antibacterial activity (MIC, growth in BHI medium); set-up: key to Antibacterial activity (growth): -: grow; ±: slightly grow; +: not grow
Procedure: as §1, with “days. The MIC value was determined for each sample and summarized in Table 2. |Pseudomonas aeruginosa KM338” for “days.”

[8] = tested on: S. mutans OMZ 176 (serotype d); assay: microbe, parasite or virus in culture; conditions: for minimal effective concentration / inhibition at 10 µg/mL / inhibition at 20 µg/mL / inhibition at 30 µg/mL / inhibition at 50 µg/mL / inhibition at 100 µg/mL: Streptococcus mutans; for minimal effective concentration: 20 h, read-out: concentration at which adherence of the bacterial cells is inhibited; for inhibition at 10 µg/mL / inhibition at 20 µg/mL / inhibition at 30 µg/mL / inhibition at 50 µg/mL / inhibition at 100 µg/mL: read-out: Adherence-inhibiting activity (AIP)
Procedure: The adherence-inhibiting activity of the triterpenes of the formula (I) was measured using an inner wall of a test tube in place of the surface of a tooth.
To 2.9 ml of BHI medium containing 5% sucrose in a test tube (i) are added 30 μl of a sample solution prepared by dissolving a compound of: the formula (I) in H2 O or dimethylsulfoxide (DMSO) and 100 μl of culture medium containing S. mutans OMZ 176 (serotype d) which was preincuvated at 37° C. for 24 hours in BHI medium, and the mixture is incubated at 37° C. for 20 hours, with the test tube being maintained at a slant of 30°. The test tube is revolved gently two or three times and the supernatant is transferred to another test tube (ii). To the first test tube (i) is added 3 ml of 50 mM phosphate buffer (pH 7.5), and the test tube is gently revolved two or three times. The resultant supernatant is transferred to the third test tube (iii). The test tubes (ii) and (iii) are each centrifuged and respective supernatants are discarded. To each of the test tubes (i), (ii) and (iii) is added 3 ml of 0.5M NaOH, and the test tubes are shaken to suspend bacterial cells. Absorbance of the resulting suspension is measured at 660 nm. The absorbances obtained with respect to the test tube (i), (ii) and (iii) are represented by Ab(i), Ab(ii) and Ab(iii), respectively. Ab(i) reflects the amount of the bacterial cells adhered to the wall of the test tube and Ab(ii) and Ab(iii) correspond to the amount of the bacterial cells not adhered to the wall.
The same procedure is repeated using 30 μl of distilled water or DMSO in place of the sample solution to obtain a control. The absorbance of the control is represented by Ab(Cont.).
Adherence percentage of bacteria is calculated from the following equation. [formula]
Adherence inhibitory percentage (AIP) is calculated using the adherence percentage according to the following equation. [formula]
The magnitude of adherence-inhibiting activity of each of the samples is shown, in Table 3, by the use of the following symbols: […]

[9] = tested on: bacterial cells; assay: Adherence of bacterial cells to the surface of an extracted tooth; conditions: extracted tooth suspended in a culture medium containing sucrose
[10] = text statement, listed as pomolic acid

## CC1(C)[C@@H](O)CC[C@]2(C)[C@H]3C(=O)C=C4[C@@H]5C[C@@](C)(C(=O)O)CC[C@]5(C)CC[C@@]4(C)[C@]3(C)CC[C@@H]12 [Glycyrrhetic acid]
[1]
  antibacterial activity to S. mutans (in words): exhibits a selective antibacterial activity on S. mutans and Bacillus megaterium; also recorded: very strong and selective antibacterial activity to S. mutans
[1]; 10 μg/ml
  Antibacterial activity (growth): +
[1]; 25 μg/ml
  Antibacterial activity (growth): +
[1]; 50 μg/ml
  Antibacterial activity (growth): +
[1]; 100 μg/ml
  Antibacterial activity (growth): +
[1]; 200 μg/ml
  Antibacterial activity (growth): +
[1]; 400 μg/ml
  Antibacterial activity (growth): +
[1]; Streptococcus mutans OMZ 176, BHI, 37° C.
  MIC (minimum inhibitory concentration): lower than 10 μg/ml
[1]; Streptococcus mutans, OMZ176, Streptococcus mutans OMZ 176, BHI, 37° C., read-out: MIC (minimum inhibitory concentration)
  MIC: 10 µg/mL (≈ 21.2 µM)
[2]; 10 μg/ml
  Antibacterial activity (growth): -
[2]; 25 μg/ml
  Antibacterial activity (growth): -
[2]; 50 μg/ml
  Antibacterial activity (growth): -
[2]; 100 μg/ml
  Antibacterial activity (growth): -
[2]; 200 μg/ml
  Antibacterial activity (growth): -
[2]; 400 μg/ml
  Antibacterial activity (growth): ±
[2]; ATCC9222, Streptococcus salivarius, BHI, 37° C., read-out: MIC (minimum inhibitory concentration)
  MIC: > 400 µg/mL
[2]; text statement
  antibacterial action on Streptococcus salivarius (in words): remain unaffected
[3]; 10 μg/ml
  Antibacterial activity (growth): -
[3]; 25 μg/ml
  Antibacterial activity (growth): +
[3]; 50 μg/ml
  Antibacterial activity (growth): +
[3]; 100 μg/ml
  Antibacterial activity (growth): +
[3]; 200 μg/ml
  Antibacterial activity (growth): +
[3]; 400 μg/ml
  Antibacterial activity (growth): +
[3]; Priestia megaterium, QMB1551, Bacillus megaterium, BHI, 37° C., read-out: MIC (minimum inhibitory concentration)
  MIC: 25 µg/mL (≈ 53.1 µM)
[3]; text statement
  antibacterial activity on Bacillus megaterium (in words): exhibits a selective antibacterial activity on S. mutans and Bacillus megaterium
[4]; 10 μg/ml
  Antibacterial activity (growth): -
[4]; 25 μg/ml
  Antibacterial activity (growth): -
[4]; 50 μg/ml
  Antibacterial activity (growth): -
[4]; 100 μg/ml
  Antibacterial activity (growth): -
[4]; 200 μg/ml
  Antibacterial activity (growth): -
[4]; 400 μg/ml
  Antibacterial activity (growth): -
[4]; 209P, Staphylococcus aureus, BHI, 37° C., read-out: MIC (minimum inhibitory concentration)
  MIC: 400 µg/mL (≈ 850 µM)
[4]; text statement
  antibacterial action on Staphylococcus aureus (in words): remain unaffected
[5]; 10 μg/ml
  Antibacterial activity (growth): -
[5]; 25 μg/ml
  Antibacterial activity (growth): -
[5]; 50 μg/ml
  Antibacterial activity (growth): -
[5]; 100 μg/ml
  Antibacterial activity (growth): -
[5]; 200 μg/ml
  Antibacterial activity (growth): -
[5]; 400 μg/ml
  Antibacterial activity (growth): -
[5]; Esherichia coli, BHI, 37° C., read-out: MIC (minimum inhibitory concentration)
  MIC: > 400 µg/mL
[5]; text statement
  antibacterial action on Escherichia coli (in words): remain unaffected
[6]; 10 μg/ml
  Antibacterial activity (growth): -
[6]; 25 μg/ml
  Antibacterial activity (growth): -
[6]; 50 μg/ml
  Antibacterial activity (growth): -
[6]; 100 μg/ml
  Antibacterial activity (growth): -
[6]; 200 μg/ml
  Antibacterial activity (growth): -
[6]; 400 μg/ml
  Antibacterial activity (growth): -
[6]; IFO12648, Serratia marcescens, BHI, 37° C., read-out: MIC (minimum inhibitory concentration)
  MIC: > 400 µg/mL
[6]; text statement
  antibacterial action on Serratia marcescens (in words): remain unaffected
[7]; 10 μg/ml
  Antibacterial activity (growth): -
[7]; 25 μg/ml
  Antibacterial activity (growth): -
[7]; 50 μg/ml
  Antibacterial activity (growth): -
[7]; 100 μg/ml
  Antibacterial activity (growth): -
[7]; 200 μg/ml
  Antibacterial activity (growth): -
[7]; 400 μg/ml
  Antibacterial activity (growth): -
[7]; KM338, Pseudomonas aeruginosa, BHI, 37° C., read-out: MIC (minimum inhibitory concentration)
  MIC: > 400 µg/mL
[7]; text statement
  antibacterial action on Pseudomonas aeruginosa (in words): remain unaffected

## CC1(C)CC[C@]2(C(=O)O)CC[C@]3(C)C(=CC[C@@H]4[C@@]5(C)CC[C@H](O)[C@@](C)(CO)[C@@H]5CC[C@]43C)[C@@H]2C1 [Hederagenin]
[1]
  antibacterial activity to S. mutans (in words): almost the same antibacterial activity as oleanolic acid; also recorded: have both of the adherence-inhibiting activity and the selective antibacterial activity to S. mutans; also recorded: have both activities
[1]; 10 μg/ml
  antibacterial activity at 10 μg/ml (in words): ineffective for exhibiting antibacterial activity
[8]
  adherence-inhibiting activity (in words): have both of the adherence-inhibiting activity and the selective antibacterial activity to S. mutans; also recorded: have both activities
  minimal effective concentration: 10 µg/mL
  inhibition at 10 µg/mL: < 25%
  inhibition at 20 µg/mL: > 50%
  inhibition at 30 µg/mL: > 50%
  inhibition at 50 µg/mL: > 50%
  inhibition at 100 µg/mL: > 50%
[9]
  adherence of bacterial cells to the surface of an extracted tooth: completely inhibited

## C[C@@H]1CC[C@]2(C(=O)O)CC[C@]3(C)C(=CC[C@@H]4[C@@]5(C)CC[C@H](O)C(C)(C)[C@@H]5CC[C@]43C)[C@@H]2[C@]1(C)O [Pomolic acid]
[1]; 10 μg/ml
  antibacterial activity at 10 μg/ml (in words): ineffective for exhibiting antibacterial activity
[1]; text statement
  antibacterial activity to S. mutans (in words): almost the same antibacterial activity as oleanolic acid
[1]; [10]
  antibacterial activity to S. mutans (in words): have both of the adherence-inhibiting activity and the selective antibacterial activity to S. mutans; also recorded: have both activities
[8]
  minimal effective concentration: 10 µg/mL
  inhibition at 10 µg/mL: < 25%
  inhibition at 20 µg/mL: > 50%
  inhibition at 30 µg/mL: > 50%
  inhibition at 50 µg/mL: > 50%
  inhibition at 100 µg/mL: > 50%
[8]; [10]
  adherence-inhibiting activity (in words): have both of the adherence-inhibiting activity and the selective antibacterial activity to S. mutans; also recorded: have both activities
[9]
  adherence of bacterial cells to the surface of an extracted tooth: completely inhibited
